Laboratory results published in ChEMBL document CHEMBL3232804, “Synthesis and evaluation of new diaryl ether and quinoline hybrids as potential antiplasmodial and antimicrobial agents” (Bioorg Med Chem Lett, 2014).
pIC50: −log10 of the molar value. Converted amounts (≈) assume the structure as drawn.

Assays:
[1] = Selectivity index, ratio of IC50 for african green monkey Vero cells to IC50 for chloroquine-sensitive Plasmodium falciparum 3D7; type: toxicity, cell-based; conditions: read-out: Ratio IC50
Sporothrix schenckii = experiment: Antifungal activity against Sporothrix schenckii clinical isolate after 72 to 96 hrs by standard broth microdilution method; type: functional
Candida albicans = experiment: Antifungal activity against Candida albicans clinical isolate after 24 to 48 hrs by standard broth microdilution method; type: functional
Cryptococcus neoformans = experiment: Antifungal activity against Cryptococcus neoformans clinical isolate after 24 to 48 hrs by standard broth microdilution method; type: functional
Pseudomonas aeruginosa = experiment: Antimicrobial activity against Pseudomonas aeruginosa ATCC BAA-427 after 24 hrs by standard broth microdilution method; type: functional; conditions: ATCC BAA-427, 24 h
Staphylococcus aureus = experiment: Antimicrobial activity against Staphylococcus aureus ATCC 25923 after 24 hrs by standard broth microdilution method; type: functional; conditions: ATCC 25923, 24 h
[2] = system: Trichophyton mentagrophytes; experiment: Antifungal activity against Trichophyton mentagrophytes clinical isolate after 72 to 96 hrs by standard broth microdilution method; type: functional
Candida parapsilosis = experiment: Antifungal activity against Candida parapsilosis ATCC […] after 72 to 96 hrs by standard broth microdilution method; type: functional; conditions: Lodderomyces parapsilosis
Plasmodium falciparum [3] = experiment: Antiplasmodial activity against chloroquine-resistant Plasmodium falciparum K1 infected after 72 hrs by Malaria SYBR Green I-staining based fluorescence assay; type: functional, organism-based; conditions: K1, 72 h
Aspergillus fumigatus = experiment: Antifungal activity against Aspergillus fumigatus clinical isolate after 72 to 96 hrs by standard broth microdilution method; type: functional
Klebsiella pneumoniae = experiment: Antimicrobial activity against Klebsiella pneumoniae ATCC 27736 after 24 hrs by standard broth microdilution method; type: functional; conditions: ATCC 27736, 24 h
Escherichia coli = experiment: Antimicrobial activity against Escherichia coli ATCC 9637 after 24 hrs by standard broth microdilution method; type: functional; conditions: ATCC 9637, 24 h
Plasmodium falciparum [4] = experiment: Antiplasmodial activity against chloroquine-sensitive Plasmodium falciparum 3D7 infected after 72 hrs by Malaria SYBR Green I-staining based fluorescence assay; type: functional, organism-based; conditions: 3D7, 72 h

| SMILES | selectivity ratio [1] | MIC (Sporothrix schenckii) [µg/mL] | MIC (Candida albicans) [µg/mL] | MIC (Cryptococcus neoformans) [µg/mL] | MIC (Pseudomonas aeruginosa) [µg/mL] | MIC (Staphylococcus aureus) [µg/mL] | MIC [2] [µg/mL] | MIC (Candida parapsilosis) [µg/mL] | pIC50 (Plasmodium falciparum [3]) | MIC (Aspergillus fumigatus) [µg/mL] | MIC (Klebsiella pneumoniae) [µg/mL] | MIC (Escherichia coli) [µg/mL] | pIC50 (Plasmodium falciparum [4]) |
| --- | --- | --- | --- | --- | --- | --- | --- | --- | --- | --- | --- | --- | --- |
| COC(=O)/C(C)=C/c1ccc(Oc2ccccc2N/C(=N/c2cccc(Cl)c2)NCCCCNc2ccnc3cc(Cl)ccc23)cc1 | 80.7 | > 50 | 50 (≈ 74.8 µM) | > 50 | > 50 | 3.12 (≈ 4.67 µM) | > 50 | > 50 | < 6.10 | > 50 | > 50 | 12.5 (≈ 18.7 µM) | 7.51 |
| Clc1ccc(Cl)c(Oc2ccc(N/C(=N/c3ccccc3)NCCNc3ccnc4cc(Cl)ccc34)cc2)c1 | 109 | 3.12 (≈ 5.41 µM) | 3.12 (≈ 5.41 µM) | 6.25 (≈ 10.8 µM) | > 50 | 12.5 (≈ 21.7 µM) | 6.25 (≈ 10.8 µM) | 3.12 (≈ 5.41 µM) | < 6.06 | 12.5 (≈ 21.7 µM) | > 50 | 6.25 (≈ 10.8 µM) | 7.40 |
| COC(=O)/C(C)=C/c1ccc(Oc2ccccc2N/C(=N/c2ccc(Cl)cc2)NCCCNc2ccnc3cc(Cl)ccc23)cc1 | 32.7 | 25 (≈ 38.2 µM) | 50 (≈ 76.4 µM) | 50 (≈ 76.4 µM) | > 50 | 1.56 (≈ 2.38 µM) | 25 (≈ 38.2 µM) | > 50 | 6.58 | > 50 | > 50 | 12.5 (≈ 19.1 µM) | 7.13 |
| Clc1ccc(Cl)c(Oc2ccccc2N/C(=N/c2ccccc2)NCCCNc2ccnc3cc(Cl)ccc23)c1 | 116 | 12.5 (≈ 21.2 µM) | 12.5 (≈ 21.2 µM) | 25 (≈ 42.3 µM) | > 50 | 3.12 (≈ 5.28 µM) | 12.5 (≈ 21.2 µM) | 50 (≈ 84.6 µM) | 6.75 | > 50 | 12.5 (≈ 21.2 µM) | 12.5 (≈ 21.2 µM) | 7.13 |
| COc1ccc(Oc2ccc(N/C(=N/c3cccc(Cl)c3)NCCCNc3ccnc4cc(Cl)ccc34)cc2)cc1 | 158 | 6.25 (≈ 10.7 µM) | 6.25 (≈ 10.7 µM) | 25 (≈ 42.6 µM) | > 50 | 6.25 (≈ 10.7 µM) | 6.25 (≈ 10.7 µM) | 12.5 (≈ 21.3 µM) | 6.63 | 25 (≈ 42.6 µM) | 12.5 (≈ 21.3 µM) | 6.25 (≈ 10.7 µM) | 7.30 |
| COc1ccc(Oc2ccc(N/C(=N/c3ccccc3)NCCCCNc3ccnc4cc(Cl)ccc34)cc2)cc1 | 49 | 12.5 (≈ 22.1 µM) | 12.5 (≈ 22.1 µM) | 25 (≈ 44.2 µM) | > 50 | 6.25 (≈ 11 µM) | 12.5 (≈ 22.1 µM) | 12.5 (≈ 22.1 µM) | 7.04 | 25 (≈ 44.2 µM) | 25 (≈ 44.2 µM) | 50 (≈ 88.3 µM) | 7.07 |
| COC(=O)/C(C)=C/c1ccc(Oc2ccc(N/C(=N/c3ccc(Cl)cc3)NCCCNc3ccnc4cc(Cl)ccc34)cc2)cc1 | 100 | 6.25 (≈ 9.55 µM) | 12.5 (≈ 19.1 µM) | 12.5 (≈ 19.1 µM) | > 50 | 12.5 (≈ 19.1 µM) | 12.5 (≈ 19.1 µM) | 12.5 (≈ 19.1 µM) | 6.70 | 50 (≈ 76.4 µM) | 50 (≈ 76.4 µM) | 12.5 (≈ 19.1 µM) | 7.41 |
| Clc1ccc(Cl)c(Oc2ccccc2N/C(=N/c2ccccc2)NCCCCNc2ccnc3cc(Cl)ccc23)c1 | 43.5 | 25 (≈ 41.3 µM) | 50 (≈ 82.6 µM) | > 50 | > 50 | 12.5 (≈ 20.7 µM) | 50 (≈ 82.6 µM) | > 50 | 7.03 | > 50 | > 50 | 25 (≈ 41.3 µM) | 6.71 |
| COC(=O)/C(C)=C/c1ccc(Oc2ccccc2N/C(=N/c2cccc(Cl)c2)NCCNc2ccnc3cc(Cl)ccc23)cc1 | 234 | 25 (≈ 39 µM) | 25 (≈ 39 µM) | 25 (≈ 39 µM) | > 50 | 3.12 (≈ 4.87 µM) | 25 (≈ 39 µM) | 25 (≈ 39 µM) | 6.31 | 50 (≈ 78.1 µM) | 3.12 (≈ 4.87 µM) | 50 (≈ 78.1 µM) | 7.46 |
